Data on seven compounds can be found in patent US20240270762A1, “PENICILLIN-BINDING PROTEIN INHIBITORS” (priority 2021, published 2024).

Converted amounts (≈) assume the structure as drawn. Where two headings read alike, the source gives them in different places.

For assay [1], the target named is T1, PBP3 from Pseudomonas aeruginosa (PAO1) (Pseudomonas aeruginosa, UniProt G3XD46).
T1 construct: made in house
Put plainly: Bocillin-FL fluorescence polarization competition binding, P. aeruginosa PBP3. The following applies: Binding affinity to P. aeruginosa PBP3; fluorescence polarization competition binding assay using Bocillin-FL; read-out: P. aeruginosa PBP3 Potency. Put shortly:
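Purified PBP was preincubated with inhibitor (E. coli PBP3 1.5 μM, 30 min; P. aeruginosa PBP3 0.75 μM, A. baumannii PBP3 0.2 μM and PBP1a 1 μM, 15 min), then Bocillin-FL (0.1 μM; 0.05 μM for PBP1a) added and FP read up to 60 min. EC50 = 50% loss of bound probe.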
Background: Polarisation of emitted light reports the rotation of a fluorescent probe.

The target of the next assay is T2, A. baumannii PBP1a (Acinetobacter baumannii, UniProt A0ABX6CK30).
T2 sequence (A0ABX6CK30 1-851): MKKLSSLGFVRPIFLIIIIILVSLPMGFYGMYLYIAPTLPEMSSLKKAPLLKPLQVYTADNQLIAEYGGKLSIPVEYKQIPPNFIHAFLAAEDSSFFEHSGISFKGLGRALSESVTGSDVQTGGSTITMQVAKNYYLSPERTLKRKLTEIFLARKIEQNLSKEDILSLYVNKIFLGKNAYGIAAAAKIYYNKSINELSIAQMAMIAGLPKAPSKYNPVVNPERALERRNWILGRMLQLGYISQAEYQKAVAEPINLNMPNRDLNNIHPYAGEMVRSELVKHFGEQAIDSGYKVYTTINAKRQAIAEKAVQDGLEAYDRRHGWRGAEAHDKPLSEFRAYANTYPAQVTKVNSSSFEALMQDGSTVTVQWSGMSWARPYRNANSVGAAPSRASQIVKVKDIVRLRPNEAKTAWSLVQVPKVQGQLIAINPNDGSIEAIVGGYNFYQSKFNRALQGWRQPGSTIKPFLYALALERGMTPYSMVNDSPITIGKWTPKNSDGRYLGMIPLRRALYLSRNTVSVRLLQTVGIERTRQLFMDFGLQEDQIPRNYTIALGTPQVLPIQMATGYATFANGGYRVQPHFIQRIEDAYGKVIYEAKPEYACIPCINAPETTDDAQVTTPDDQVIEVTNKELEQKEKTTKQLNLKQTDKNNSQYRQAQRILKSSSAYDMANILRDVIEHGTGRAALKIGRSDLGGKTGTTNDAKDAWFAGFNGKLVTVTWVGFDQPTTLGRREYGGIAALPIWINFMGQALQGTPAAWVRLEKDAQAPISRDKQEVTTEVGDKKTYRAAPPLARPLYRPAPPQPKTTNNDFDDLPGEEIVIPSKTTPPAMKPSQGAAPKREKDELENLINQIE
As to the kind of experiment: Bocillin-FL competition binding via gel filtration, A. baumannii PBP1a. The following applies: competition binding assay using Bocillin-FL via gel filtration; read-out: A. baumannii PBP1a Potency. Put shortly: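 Competitive equilibrium binding; reporter Bocillin-FL. PBP + inhibitor (titration) pre-incubated → Bocillin-FL, 15 min → gel filtration → fluorescence. EC50 from Hill fit of fraction bound vs [inhibitor].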
On the technique in general: In gel filtration, larger molecules generally elute earlier.

The next assay has as its system A. baumannii ATCC 19606. Put plainly: microbe, parasite or virus in culture. It counts as cell-based. The following applies: Acinetobacter baumannii.
A further assay relates to P. aeruginosa CDC-0090. Put plainly: microbe, parasite or virus in culture. It counts as cell-based. The settings on record: Pseudomonas aeruginosa, CDC0090, read-out: Minimum inhibitory concentration, P. aeruginosa CDC-0090.
Setting [2] is: ATCC19606, read-out: MIC, A. baumannii ATCC 19606.
Where [3] appears, read: ATCC19606, read-out: Minimum inhibitory concentration (MIC), A. baumannii ATCC 19606.

T1 sequence (G3XD46 whole entry): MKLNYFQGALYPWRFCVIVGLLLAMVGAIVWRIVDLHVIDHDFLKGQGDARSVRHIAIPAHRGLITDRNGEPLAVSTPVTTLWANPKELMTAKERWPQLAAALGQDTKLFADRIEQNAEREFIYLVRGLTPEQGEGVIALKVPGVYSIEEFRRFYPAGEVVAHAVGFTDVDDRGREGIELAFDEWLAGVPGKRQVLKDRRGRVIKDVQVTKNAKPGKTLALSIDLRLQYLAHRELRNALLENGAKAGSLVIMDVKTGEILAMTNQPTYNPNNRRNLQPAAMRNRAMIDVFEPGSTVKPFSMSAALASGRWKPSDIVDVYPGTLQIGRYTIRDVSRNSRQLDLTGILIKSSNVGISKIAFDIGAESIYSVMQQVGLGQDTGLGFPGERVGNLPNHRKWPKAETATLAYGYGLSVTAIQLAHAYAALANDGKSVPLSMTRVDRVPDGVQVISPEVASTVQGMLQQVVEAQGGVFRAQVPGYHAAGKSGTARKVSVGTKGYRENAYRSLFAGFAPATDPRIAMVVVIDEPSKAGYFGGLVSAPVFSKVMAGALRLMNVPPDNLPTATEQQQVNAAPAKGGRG

Regarding `O=C(O)c1c(F)ccc2c1OB(O)[C@@H](NC(=O)[C@H](NC(=O)N1CCN(C3CCN(C(=O)c4cccc(O)c4F)CC3)C1=O)c1cc(F)c(O)c(O)c1Cl)C2` (single isomer, unassigned) [Example 431], the IC50 in assay [1] is less than 10 µM. For the same compound, the EC50 on A. baumannii PBP1a is less than 10 µM. Besides, the MIC in the assay on A. baumannii ATCC 19606 (setting [2]) and in the assay with P. aeruginosa CDC-0090 was less than 1 µg/mL each time.

Turning to `O=C(O)c1c(F)ccc2c1OB(O)[C@@H](NC(=O)[C@H](NC(=O)N1CCN(C3CCN(C(=O)Nc4c(F)ccc(O)c4F)CC3)C1=O)c1cc(F)c(O)c(O)c1Cl)C2` (single isomer, unassigned) [Example 454], in assay [1], the IC50 is less than 10 µM. Besides, on A. baumannii PBP1a, the EC50 is less than 10 µM. The MIC in the assay with A. baumannii ATCC 19606 (setting [2]) was less than 1 µg/mL; in the assay on P. aeruginosa CDC-0090, 2 to 4 µg/mL (≈ 2.47 to 4.95 µM).

For `O=C(O)c1c(F)ccc2c1OB(O)[C@@H](NC(=O)C(NC(=O)N1CCN(C3CCN(C(=O)Nc4ccc(Cl)c(O)c4F)CC3)C(=O)C1=O)c1cc(F)c(O)c(O)c1Cl)C2` (stereo partly drawn) [Example 489, (3R)-3-(2-(4-(1-((4-chloro-2-fluoro-3-hydroxyphenyl)carbamoyl)piperidin-4-yl)-2,3-dioxopiperazine-1-carboxamido)-2-(2-chloro-5-fluoro-3,4-dihydroxyphenyl)acetamido)-7-fluoro-2-hydroxy-3,4-dihydro-2H-benzo[e][1,2]oxaborinine-8-carboxylic acid], the IC50 in assay [1] is less than 10 µM. At A. baumannii PBP1a, the EC50 was less than 10 µM. The MIC with A. baumannii ATCC 19606 (setting [3]) is less than 1 µg/mL; in the assay with P. aeruginosa CDC-0090 it was 2 to 4 µg/mL (≈ 2.34 to 4.69 µM).

For `O=C(O)c1c(F)ccc2c1OB(O)[C@@H](NC(=O)[C@H](NC(=O)N1CCN(C3CCN(C(=O)Nc4cc(O)cc(F)c4)CC3)C1=O)c1cc(F)c(O)c(O)c1Cl)C2` (single isomer, unassigned) [Example 450], the IC50 in assay [1] was less than 10 µM. The EC50 on A. baumannii PBP1a was less than 10 µM. The MIC with A. baumannii ATCC 19606 (setting [2]) and in the assay with P. aeruginosa CDC-0090 was less than 1 µg/mL throughout.

For the compound `O=C(O)c1c(F)ccc2c1OB(O)[C@@H](NC(=O)[C@H](NC(=O)N1CCN(C3CCN(C(=O)c4cc(O)c(O)c(Cl)c4)CC3)C1=O)c1ccc(P(=O)(O)O)cc1)C2` [Example 496, (R)-3-((R)-2-(3-(1-(3-chloro-4,5-dihydroxybenzoyl)piperidin-4-yl)-2-oxoimidazolidine-1-carboxamido)-2-(4-phosphonophenyl)acetamido)-7-fluoro-2-hydroxy-3,4-dihydro-2H-benzo[e][1,2]oxaborinine-8-carboxylic acid], the IC50 in assay [1] is less than 10 µM. Also, the EC50 at A. baumannii PBP1a is less than 10 µM. Besides, the MIC in the assay with A. baumannii ATCC 19606 (setting [3]) and in the assay with P. aeruginosa CDC-0090 was less than 1 µg/mL each time.

As for `O=C(NCCS(=O)(=O)N1CCN(C(=O)N[C@@H](C(=O)N[C@H]2Cc3ccc(F)c(C(=O)O)c3OB2O)c2ccc(P(=O)(O)O)cc2)C1=O)c1ccc(O)c(O)c1Cl` (single isomer, unassigned) [Example 168], the IC50 in assay [1] was less than 10 µM. Moreover, the EC50 at A. baumannii PBP1a was 50 to 250 µM. Further, the MIC was less than 1 µg/mL with A. baumannii ATCC 19606 (setting [2]) and 32 to 64 µg/mL (≈ 38.7 to 77.3 µM) in the assay on P. aeruginosa CDC-0090.

For the compound `O=C(O)c1c(F)ccc2c1OB(O)[C@@H](NC(=O)[C@H](NC(=O)N1CCN(C3CCN(Cc4ccncc4)CC3)C1=O)c1cc(F)c(O)c(O)c1Cl)C2` [Example 493, (R)-3-((R)-2-(2-chloro-5-fluoro-3,4-dihydroxyphenyl)-2-(2-oxo-3-(1-(pyridin-4-ylmethyl)piperidin-4-yl)imidazolidine-1-carboxamido)acetamido)-7-fluoro-2-hydroxy-3,4-dihydro-2H-benzo[e][1,2]oxaborinine-8-carboxylic acid], the IC50 in assay [1] was less than 10 µM. Moreover, the EC50 on A. baumannii PBP1a is less than 10 µM. Also, the MIC in the assay on A. baumannii ATCC 19606 (setting [3]) and in the assay on P. aeruginosa CDC-0090 was less than 1 µg/mL in each case.
